Measured values: paper PMC12892976, “Alkylation-based optimization of antifungal FPPS inhibitors yields a potent, broad-spectrum lipophilic zoledronate derivative” (mBio, 2025)
Read-outs that look alike come from different tables or passages of the source.

What was measured:
Saccharomyces cerevisiae [1] = experiment: MIC/MFC broth microdilution (CLSI); format: cell-based; conditions: Saccharomyces cerevisiae S288c
Description: (§1) Antifungal susceptibility was determined by broth microdilution according to the CLSI guidelines described in M27-Ed4 ([16]). […] MFC was determined by back-plating drug-treated cultures from MIC broths onto SDA plates. The MFC was defined as the lowest concentration from which no colonies could be cultured.

Candida albicans [2] = experiment: MIC/MFC broth microdilution (CLSI); format: cell-based; conditions: Candida albicans SC5314
Description: as §1

[3] = test system: Cryptococcus deuterogattii; experiment: checkerboard drug interaction (FICI, MICc);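 on all read-outs here: simplified diagonal checkerboard screen pairing antifungal drugs with FPPS inhibitors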; format: cell-based; conditions: C. deuterogattii; for INH FD (MIC-MICc fold decrease): fold decrease of inhibitor MIC
Description: (§2) Drug interactions between antifungals and FPPS inhibitors were investigated using a simplified checkerboard diagonal screening method ([45]). […] FICIs were determined according to the Loewe additivity model ([17]).

Cryptococcus neoformans [4] = experiment: checkerboard drug interaction (FICI, MICc);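 on all read-outs here: antifungal plus FPPS inhibitor pairs tested against Cryptococcus neoformans by simplified diagonal checkerboard screening, FICI computed under the Loewe additivity model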; format: cell-based; conditions: C. neoformans; for INH FD (MIC-MICc fold decrease): fold decrease of inhibitor MIC
Description: as §2

Saccharomyces cerevisiae [5] = experiment: checkerboard drug interaction (FICI, MICc); format: cell-based; parameters: INH MICc / INH MICc (ITR:INH) / INH MICc (KET:INH) / INH MICc (FLC:INH): unit not given beside the values;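 further: simplified diagonal checkerboard screen pairing antifungals with FPPS inhibitors, FICI calculated under the Loewe additivity model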
Candida glabrata [6] = experiment: checkerboard drug interaction (FICI, MICc);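 on all read-outs here: simplified diagonal checkerboard screen pairing antifungals with FPPS inhibitors, FICI calculated under the Loewe additivity model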; format: cell-based; conditions: C. glabrata; for INH FD (MIC-MICc fold decrease): fold decrease of inhibitor MIC
Description: as §2

Candida albicans [7] = experiment: checkerboard drug interaction (FICI, MICc);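 on all read-outs here: antifungal plus FPPS inhibitor combinations on Candida albicans tested by a simplified diagonal checkerboard screen, with FICI calculated under the Loewe additivity model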; format: cell-based; conditions: C. albicans; for INH FD (MIC-MICc fold decrease): fold decrease of inhibitor MIC
Description: as §2

Aspergillus flavus [8] = experiment: checkerboard drug interaction (FICI, MICc);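 further: simplified diagonal checkerboard screen pairing azole antifungals with FPPS inhibitors, FICI calculated under the Loewe additivity model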; format: cell-based; parameters: INH MICc (KET:INH) / INH MICc (FLC:INH): unit not given beside the values; conditions: A. flavus
Aspergillus fumigatus [9] = experiment: checkerboard drug interaction (FICI, MICc); format: cell-based;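 further: simplified diagonal checkerboard screen pairing antifungals with FPPS inhibitors against Aspergillus fumigatus, with FICI calculated under the Loewe additivity model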
Description: as §2

Trichophyton rubrum [10] = experiment: checkerboard drug interaction (FICI, MICc);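 further: simplified diagonal checkerboard screen pairing azole antifungals with FPPS inhibitors, FICI calculated under the Loewe additivity model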; format: cell-based; conditions: T. rubrum
Description: as §2

HEK-293T cells = experiment: MTT reduction cytotoxicity assay; format: cell-based; conditions: Homo sapiens, HEK-293T, 72 h, HEK-293T, MTT, 72 h; read-out: HEK IC50
eight fungal species [11] = experiment: MIC/MFC summary across the eight fungal species of Table 1; format: cell-based
Description: The antifungal activity of these compounds was evaluated according to CLSI guidelines ([16]).

eight fungal species [12] = experiment: checkerboard interaction with azoles, summary across the eight species; format: cell-based; conditions: geometric mean MIC in combination with azoles
Excerpt: Synergy between lipophilic FPPS inhibitors and azole antifungals was investigated by determining the fractional inhibitory concentration index (FICI) (Fig. 2; Table S1 Fig. S1) ([17]). […]. Derivatives PLA9 and 11, and PDA9, 11, and 12 antagonized azoles in C. albicans, C. neoformans, and C. deuterogattii, yet were largely synergistic in C. glabrata and S. cerevisiae. […].

[13] = test system: Cryptococcus deuterogattii; experiment: MIC/MFC broth microdilution (CLSI); conditions: Cryptococcus deuterogattii;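 further: broth microdilution per CLSI M27-Ed4. MFC is the lowest concentration yielding no colonies when MIC broths are subcultured onto SDA plates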
Description: as §1

Cryptococcus neoformans [14] = experiment: MIC/MFC broth microdilution (CLSI); conditions: Cryptococcus neoformans;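 further: susceptibility testing followed the CLSI M27-Ed4 broth microdilution document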
Description: as §1

Candida glabrata [15] = experiment: MIC/MFC broth microdilution (CLSI); conditions: Nakaseomyces glabratus, CBS138;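 further: broth microdilution following CLSI M27-Ed4, MFC taken as the lowest drug level yielding no growth once MIC wells were subcultured on SDA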
Description: as §1

Aspergillus flavus [16] = experiment: MIC/MFC broth microdilution (CLSI); conditions: ATCC204304
Description: as §1

Aspergillus fumigatus [17] = experiment: MIC/MFC broth microdilution (CLSI); conditions: ATCC204305
Description: as §1

Trichophyton rubrum [18] = experiment: MIC/MFC broth microdilution (CLSI); conditions: Trichophyton rubrum
Description: as §1

[19] = FLC:INH combination, MIC of the inhibitor in combination with FLC
[20] = FLC:INH combination, fold decrease of FLC MIC
[21] = ITR:INH combination, MIC of the inhibitor in combination with ITR
[22] = ITR:INH combination, fold decrease of ITR MIC
[23] = KET:INH combination, MIC of the inhibitor in combination with KET
[24] = KET:INH combination, fold decrease of KET MIC
[25] = Fractional Inhibitory Concentration Index, fluconazole + inhibitor
[26] = Fractional Inhibitory Concentration Index, itraconazole + inhibitor
[27] = Fractional Inhibitory Concentration Index, ketoconazole + inhibitor
[28] = MIC of the inhibitor in combination with fluconazole
[29] = MIC of the inhibitor in combination with itraconazole
[30] = MIC of the inhibitor in combination with ketoconazole
[31] = MIC-MICc fold decrease of fluconazole, negative = increase
[32] = MIC-MICc fold decrease of itraconazole, negative = increase
[33] = MIC-MICc fold decrease of ketoconazole, negative = increase
[34] = MIC-MICc fold decrease of the inhibitor, with fluconazole
[35] = MIC-MICc fold decrease of the inhibitor, with itraconazole
[36] = MIC-MICc fold decrease of the inhibitor, with ketoconazole

Structure (SMILES): CCCCCCCCCCCN1CCC[C@H]1C(=O)N[C@H](CC(=O)O)C(=O)O [PDA11]
- MFC (Saccharomyces cerevisiae [1]): > 128 µg/mL
- MIC (Saccharomyces cerevisiae [1]): > 128 µg/mL
- MFC (Candida albicans [2]): > 128 µg/mL
- MIC (Candida albicans [2]): > 128 µg/mL
- FICI ([3]; FLC:INH combination): ≥4
- INH MICc [3, 19]: 256
- FLC FD (MIC-MICc fold decrease) [3, 20]: -4
- INH FD (MIC-MICc fold decrease) ([3]; FLC:INH combination): 1
- FICI ([3]; ITR:INH combination): ≥4
- INH MICc [3, 21]: 256
- ITR FD (MIC-MICc fold decrease) [3, 22]: < -4
- INH FD (MIC-MICc fold decrease) ([3]; ITR:INH combination): 1
- FICI ([3]; KET:INH combination): 1
- INH MICc [3, 23]: 128
- KET FD (MIC-MICc fold decrease) [3, 24]: 2
- INH FD (MIC-MICc fold decrease) ([3]; KET:INH combination): 2
- FICI (Cryptococcus neoformans [4]; FLC:INH combination): ≥4
- INH MICc (Cryptococcus neoformans [4]; [19]): 256
- FLC FD (MIC-MICc fold decrease) (Cryptococcus neoformans [4]; [20]): < -4
- INH FD (MIC-MICc fold decrease) (Cryptococcus neoformans [4]; FLC:INH combination): 1
- FICI (Cryptococcus neoformans [4]; ITR:INH combination): ≥4
- INH MICc (Cryptococcus neoformans [4]; [21]): 256
- ITR FD (MIC-MICc fold decrease) (Cryptococcus neoformans [4]; [22]): < -4
- INH FD (MIC-MICc fold decrease) (Cryptococcus neoformans [4]; ITR:INH combination): 1
- FICI (Cryptococcus neoformans [4]; KET:INH combination): ≥4
- INH MICc (Cryptococcus neoformans [4]; [23]): 128
- KET FD (MIC-MICc fold decrease) (Cryptococcus neoformans [4]; [24]): -4
- INH FD (MIC-MICc fold decrease) (Cryptococcus neoformans [4]; KET:INH combination): 2
- FICI (FLC:INH) (Saccharomyces cerevisiae [5]; [25]): 0.5
- FICI (ITR:INH) (Saccharomyces cerevisiae [5]; [26]): 1.5
- FICI (KET:INH) (Saccharomyces cerevisiae [5]; [27]): 0.5
- INH MICc (FLC:INH) (Saccharomyces cerevisiae [5]; [28]): 64
- INH MICc (ITR:INH) (Saccharomyces cerevisiae [5]; [29]): 128
- INH MICc (KET:INH) (Saccharomyces cerevisiae [5]; [30]): 64
- FLC FD (FLC:INH) (Saccharomyces cerevisiae [5]; [31]): 4
- ITR FD (ITR:INH) (Saccharomyces cerevisiae [5]; [32]): 1
- KET FD (KET:INH) (Saccharomyces cerevisiae [5]; [33]): 4
- INH FD (FLC:INH) (Saccharomyces cerevisiae [5]; [34]): 4
- INH FD (ITR:INH) (Saccharomyces cerevisiae [5]; [35]): 2
- INH FD (KET:INH) (Saccharomyces cerevisiae [5]; [36]): 4
- FICI (Candida glabrata [6]; FLC:INH combination): 0.63
- INH MICc (Candida glabrata [6]; [19]): 8
- FLC FD (MIC-MICc fold decrease) (Candida glabrata [6]; [20]): 2
- INH FD (MIC-MICc fold decrease) (Candida glabrata [6]; FLC:INH combination): 32
- FICI (Candida glabrata [6]; ITR:INH combination): 0.28
- INH MICc (Candida glabrata [6]; [21]): 2
- ITR FD (MIC-MICc fold decrease) (Candida glabrata [6]; [22]): 4
- INH FD (MIC-MICc fold decrease) (Candida glabrata [6]; ITR:INH combination): 128
- FICI (Candida glabrata [6]; KET:INH combination): 0.28
- INH MICc (Candida glabrata [6]; [23]): 2
- KET FD (MIC-MICc fold decrease) (Candida glabrata [6]; [24]): 4
- INH FD (MIC-MICc fold decrease) (Candida glabrata [6]; KET:INH combination): 128
- FICI (Candida albicans [7]; FLC:INH combination): ≥4
- INH MICc (Candida albicans [7]; [19]): 128
- FLC FD (MIC-MICc fold decrease) (Candida albicans [7]; [20]): < -4
- INH FD (MIC-MICc fold decrease) (Candida albicans [7]; FLC:INH combination): 2
- FICI (Candida albicans [7]; ITR:INH combination): ≥4
- INH MICc (Candida albicans [7]; [21]): 128
- ITR FD (MIC-MICc fold decrease) (Candida albicans [7]; [22]): < -4
- INH FD (MIC-MICc fold decrease) (Candida albicans [7]; ITR:INH combination): 2
- FICI (Candida albicans [7]; KET:INH combination): ≥4
- INH MICc (Candida albicans [7]; [23]): 64
- KET FD (MIC-MICc fold decrease) (Candida albicans [7]; [24]): < -4
- INH FD (MIC-MICc fold decrease) (Candida albicans [7]; KET:INH combination): 4
- FICI (FLC:INH) (Aspergillus flavus [8]; [25]): 1
- FICI (ITR:INH) (Aspergillus flavus [8]; [26]): 2
- FICI (KET:INH) (Aspergillus flavus [8]; [27]): 0.75
- INH MICc (FLC:INH) (Aspergillus flavus [8]; [28]): 128
- INH MICc (ITR:INH) (Aspergillus flavus [8]; [29]): 256
- INH MICc (KET:INH) (Aspergillus flavus [8]; [30]): 64
- FLC FD (FLC:INH) (Aspergillus flavus [8]; [31]): 2
- ITR FD (ITR:INH) (Aspergillus flavus [8]; [32]): 1
- KET FD (KET:INH) (Aspergillus flavus [8]; [33]): 2
- INH FD (FLC:INH) (Aspergillus flavus [8]; [34]): 2
- INH FD (ITR:INH) (Aspergillus flavus [8]; [35]): 1
- INH FD (KET:INH) (Aspergillus flavus [8]; [36]): 4
- FICI (FLC:INH) (Aspergillus fumigatus [9]; [25]): 2
- FICI (ITR:INH) (Aspergillus fumigatus [9]; [26]): 0.51
- FICI (KET:INH) (Aspergillus fumigatus [9]; [27]): 1.5
- INH MICc (FLC:INH) (Aspergillus fumigatus [9]; [28]): 256
- INH MICc (ITR:INH) (Aspergillus fumigatus [9]; [29]): 2
- INH MICc (KET:INH) (Aspergillus fumigatus [9]; [30]): 128
- FLC FD (FLC:INH) (Aspergillus fumigatus [9]; [31]): 1
- ITR FD (ITR:INH) (Aspergillus fumigatus [9]; [32]): 2
- KET FD (KET:INH) (Aspergillus fumigatus [9]; [33]): 1
- INH FD (FLC:INH) (Aspergillus fumigatus [9]; [34]): 1
- INH FD (ITR:INH) (Aspergillus fumigatus [9]; [35]): 128
- INH FD (KET:INH) (Aspergillus fumigatus [9]; [36]): 2
- FICI (FLC:INH) (Trichophyton rubrum [10]; [25]): 3
- FICI (ITR:INH) (Trichophyton rubrum [10]; [26]): 2
- FICI (KET:INH) (Trichophyton rubrum [10]; [27]): 3
- INH MICc (FLC:INH) (Trichophyton rubrum [10]; [28]): 256
- INH MICc (ITR:INH) (Trichophyton rubrum [10]; [29]): 256
- INH MICc (KET:INH) (Trichophyton rubrum [10]; [30]): 256
- FLC FD (FLC:INH) (Trichophyton rubrum [10]; [31]): -2
- ITR FD (ITR:INH) (Trichophyton rubrum [10]; [32]): 1
- KET FD (KET:INH) (Trichophyton rubrum [10]; [33]): -2
- INH FD (FLC:INH) (Trichophyton rubrum [10]; [34]): 1
- INH FD (ITR:INH) (Trichophyton rubrum [10]; [35]): 1
- INH FD (KET:INH) (Trichophyton rubrum [10]; [36]): 1
- IC50 (HEK-293T cells): > 256 µg/mL
- MFC (eight fungal species [11]; across eight species, read-out: Geometric mean MFC): > 128 µg/mL
- MIC (eight fungal species [11]; geometric mean across eight species, read-out: GM fungal MIC): > 128 µg/mL
- MIC (eight fungal species [11]; read-out: Geometric mean MIC): > 128 µg/mL
- GM fungal MICc (eight fungal species [12]): 78.3
- MFC [13]: > 128 µg/mL
- MIC [13]: > 128 µg/mL
- MFC (Cryptococcus neoformans [14]): > 128 µg/mL
- MIC (Cryptococcus neoformans [14]): > 128 µg/mL
- MFC (Candida glabrata [15]): > 128 µg/mL
- MIC (Candida glabrata [15]): > 128 µg/mL
- MFC (Aspergillus flavus [16]): > 128 µg/mL
- MIC (Aspergillus flavus [16]): > 128 µg/mL
- MFC (Aspergillus fumigatus [17]): > 128 µg/mL
- MIC (Aspergillus fumigatus [17]): > 128 µg/mL
- MFC (Trichophyton rubrum [18]): > 128 µg/mL
- MIC (Trichophyton rubrum [18]): > 128 µg/mL
